Test results reported in article PMC5651866, “Halogenated Chrysins Inhibit Dengue and Zika Virus Infectivity” (Scientific Reports, 2017).

Assays:
[1] = Cytotoxicity study, summary statements over human-derived cell lines; type: cell-based; settings: HepG2 and HEK-293 cells, THP-1, HepG2, HEK-293, 10 and 25 µM, Table 2
Protocol: (§1) The cytotoxicity of active compounds was tested on LLC-MK2, Vero, THP-1, HEK-293, HepG2 and C6/36 cell lines. Each cell line was seeded at 1 × 10^4 cells per well in 96-well plates and incubated overnight. The compounds were added at the indicated concentrations and the cells were incubated for 48 h, unless indicated otherwise. Cell viability was analyzed using CellTiter 96® AQueous One Solution Cell Proliferation Assay kit (Promega, Wisconsin-Madison, USA) according to manufacturer’s protocol. The plate was read at the A 450 in a VICTORTM × 3 microplate reader (PerkinElmer, Massachusetts, USA). Percent cell viability in compound-treated wells was calculated using reference DMSO-treated cells as a 100% cell viability control. The CC50 values of LLC/MK2 cells were calculated using nonlinear regression analysis. Results were reported as means and standard error of the means (SEM) of CC50 values of three independent experiments in which each drug concentration was tested in triplicate.

[2] = Cytotoxicity study (CellTiter 96 AQueous One) in HepG2 cells; type: cell-based; settings: human, HepG2 cells, read-out: Cells viability (%, means ± SEM) HepG2
Protocol: as §1

[3] = Cytotoxicity study (CellTiter 96 AQueous One) in HEK-293 cells; type: cell-based; settings: human, HEK-293 cells, read-out: Cells viability (%, means ± SEM) HEK-293
Protocol: as §1

DENV3 (16562) = experiment: Antiviral efficacy (EC50) in virus infected LLC/MK2 cells, plaque assay; type: cell-based, Dengue virus
Protocol: (§2) Compound at various concentrations were added to virus infected LLC/MK2 cells and viral titers were accessed by plaque titration of supernatants as previously described.
(§3) LLC/MK2 cells were seeded at 5 × 10^4 cells into each well of 24-well plate and incubated overnight at 37 °C under 5% CO2. Cells were infected with DENV2 at the multiplicity of infection (M.O.I.) of 0.1, unless indicated otherwise, for 1 h with gentle rocking every 15 min. Cells were washed with phosphate buffer saline (PBS) and incubated with 1 ml of MEM medium supplemented with 1% FBS as previously described. The compounds were prepared in dimethylsulfoxide (DMSO) at the indicated concentrations before addition to viral infected cells. Supernatants were collected after 5 day incubation and analyzed by plaque titration[9].
(§4) Compounds were prepared in DMSO at 8–12 different concentrations and added to virus infected cells as previously described. Supernatants were collected and the EC50 values were calculated from nonlinear regression analysis.

Vero cells = experiment: Cytotoxicity study (CellTiter 96 AQueous One) in Vero cells; type: cell-based; settings: 10 and 25 µM; in words
Protocol: as §1

[4] = as above; type: cell-based; settings: African green monkey, Vero cells, 48 h, read-out: Cells viability (%, means ± SEM) Vero
Protocol: as §1

LLC/MK2 cells = experiment: Cytotoxicity study (CellTiter 96 AQueous One) in LLC/MK2 cells; type: cell-based; settings: LLC/MK2 cell viability at 120 h versus 48 h; in words
Protocol: as §1

[5] = as above; type: cell-based; settings: rhesus monkey, LLC/MK2 cells
Protocol: as §1

DENV2 NS2B/3 protease = target: T1, DENV2 NS2B/3 protease (Dengue virus type 2, UniProt P14340); experiment: In vitro protease assay; type: biochemical; settings: in words
T1 construct: DENV2 NS2BH-(QR)-NS3pro enzyme3
Protocol: Assays were performed in triplicate in a 96-well half area black plate
(Greiner Bio-One, Monroe, NC, USA). The reaction mixture (100 μl) contained
200 mM Tris-HCl, pH 9.5, 30% glycerol, 0.1% CHAPS, 1% DMSO, 50 nM
DENV2 NS2BH-(QR)-NS3pro enzyme3, 10 µM fluorogenic tetrapeptide
substrate, Bz-Nle-Lys-Arg-Arg-AMC, and designated concentrations of
compounds in DMSO (concentration of 1%). The compound-enzyme mixture
was pre-incubated for 15 min at room temperature before addition of the
substrate. The reaction was continued at 37 οC for 30 min. The release of AMC
from the substrate was recorded every 1.5 min at 380 nm excitation and 460 nm
emission in a SpectraMax Gemini EM spectrofluorometer (Molecular Devices,
Sunnyvale, CA). DMSO alone (concentration of 1%) was used as the no-inhibitor
control (100% protease activity) and the bovine pancreatic trypsin inhibitor
protease, was used at 5 µM in DMSO concentration of 1% as a positive control
(0% protease activity). Data were plotted and reported as percent inhibition of
each compound to protease activity.
The in vitro enzymatic protease assay. Compounds were prepared three
concentrations and mixed with protein, added substrate (Bz)-Nle-Arg-arg-AMC
and measured at 460 nm with an excitation at 380 nm.

DENV1 (16007) = experiment: Antiviral efficacy (EC50) in virus infected LLC/MK2 cells, plaque assay; type: cell-based, Dengue virus
Protocol: as §2, §3, §4

T1 sequence (P14340 1398-1437): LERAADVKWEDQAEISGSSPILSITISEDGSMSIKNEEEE
T1 sequence (P14340 1476-1653): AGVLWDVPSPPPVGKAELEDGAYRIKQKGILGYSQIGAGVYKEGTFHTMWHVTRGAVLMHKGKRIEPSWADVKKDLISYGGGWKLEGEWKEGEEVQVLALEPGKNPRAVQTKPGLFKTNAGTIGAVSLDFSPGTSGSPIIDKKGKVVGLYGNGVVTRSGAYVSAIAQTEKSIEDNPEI

SMILES: O=c1cc(-c2ccccc2)oc2c(Br)c(O)c(Br)c(O)c12 [FV13, 6,8-dibromo-5,7-dihydroxyflavone]
- viability at 48 h [1]: > 80%
- viability at 48 h, 10 µM ([2]; 10 μM): 85.8 ± 4.7%
- viability at 48 h, 25 µM ([2]; 25 μM): 84.6 ± 2.79%
- viability at 48 h, 10 µM ([3]; 10 μM): 98.1 ± 0.72%
- viability at 48 h, 25 µM ([3]; 25 μM): 89.4 ± 5.6%
- S.I. Selectivity index (CC50/EC50) (DENV3 (16562); DENV3 (16562), CC50 in LLC/MK2): 19.22
- EC50 (DENV3 (16562); Dengue virus, DENV3, LLC-MK2): 2320 ± 1460 nM
- sensitivity of Vero cells to the compound (Vero cells): very sensitive
- viability at 48 h, 10 µM ([4]; 10 μM): 53.1 ± 4.9%
- viability at 48 h, 25 µM ([4]; 25 μM): 42.6 ± 0.65%
- effect of long term incubation on cytotoxicity (LLC/MK2 cells): similarly non-toxic at both 48 and 120 h
- viability at 48 h, 10 µM ([5]; 10 μM, 48 h, read-out: Cells viability (%, means ± SEM) LLC/MK2): 81 ± 2.69%
- viability at 48 h, 25 µM ([5]; 25 μM, 48 h, read-out: Cells viability (%, means ± SEM) LLC/MK2): 59.4 ± 2.42%
- CC50 at 48 h ([5]; 48 h incubation, read-out: CC50 (cytotoxic concentration)): 44300 ± 2900 nM
- targeting of DENV2 protease in the in vitro protease assay (DENV2 NS2B/3 protease): did not target DENV2 protease
- S.I. Selectivity index (CC50/EC50) (DENV1 (16007); DENV1 (16007), CC50 in LLC/MK2): 19.42
- EC50 (DENV1 (16007); Dengue virus, DENV1, LLC-MK2): 2300 ± 1040 nM
